≈ marks a conversion by molar mass, not a printed value.
Assays:
[1] = biological target: T1, tRNA (guanine-N(1)-)-methyltransferase (Escherichia coli (strain K12), UniProt P0A873); experiment: Inhibition of Escherichia coli TrmD
T1 sequence (P0A873 whole entry): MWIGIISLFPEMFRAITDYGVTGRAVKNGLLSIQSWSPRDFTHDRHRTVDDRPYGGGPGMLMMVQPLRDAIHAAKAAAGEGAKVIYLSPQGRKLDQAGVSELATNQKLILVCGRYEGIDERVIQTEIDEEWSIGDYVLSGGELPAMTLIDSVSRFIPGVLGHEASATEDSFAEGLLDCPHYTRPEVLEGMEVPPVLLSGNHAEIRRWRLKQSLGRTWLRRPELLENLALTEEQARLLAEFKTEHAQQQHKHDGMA

Haemophilus influenzae = experiment: Antibacterial activity against Haemophilus influenzae ATCC 49247 assessed as inhibition of bacterial growth; type: functional
Escherichia coli [2] = experiment: Antibacterial activity against efflux-defective Escherichia coli N43 deficit of AcrAB-TolC assessed as inhibition of bacterial growth; type: functional
Escherichia coli [3] = experiment: Antibacterial activity against efflux-defective Escherichia coli N43 deficit of AcrAB-TolC assessed as inhibition of bacterial growth in presence of 4 ug/ml membrane-permeabilising agent, polymyxin B; type: functional
[4] = Lipophilicity, logD of the compound at pH 7.4; type: physicochemical; settings: buffer
Neisseria gonorrhoeae = experiment: Antibacterial activity against Neisseria gonorrhoeae ATCC 49226 assessed as inhibition of bacterial growth; type: functional
Bacillus subtilis = experiment: Antibacterial activity against Bacillus subtilis ATCC 6633 assessed as inhibition of bacterial growth; type: functional
Francisella tularensis = experiment: Antibacterial activity against Francisella tularensis-Schu S4 assessed as inhibition of bacterial growth; type: functional
Burkholderia cepacia = experiment: Antibacterial activity against Burkholderia cepacia ATCC 25416 assessed as inhibition of bacterial growth; type: functional
Streptococcus pneumoniae = experiment: Antibacterial activity against Streptococcus pneumoniae ATCC 49619 assessed as inhibition of bacterial growth; type: functional
[5] = Cytotoxicity against human HepG2 cells; type: toxicity, cell-based
Enterococcus faecium = experiment: Antibacterial activity against Enterococcus faecium ATCC 19434 assessed as inhibition of bacterial growth; type: functional
Moraxella catarrhalis = experiment: Antibacterial activity against Moraxella catarrhalis ATCC 25240 assessed as inhibition of bacterial growth; type: functional
[6] = system: Staphylococcus epidermidis; experiment: Antibacterial activity against Staphylococcus epidermidis ATCC 12228 assessed as inhibition of bacterial growth; type: functional
Yersinia pestis = experiment: Antibacterial activity against Yersinia pestis CO92 assessed as inhibition of bacterial growth; type: functional
Acinetobacter baumannii = experiment: Antibacterial activity against Acinetobacter baumannii NCTC 13420 assessed as inhibition of bacterial growth; type: functional
Pseudomonas aeruginosa = experiment: Antibacterial activity against Pseudomonas aeruginosa ATCC 27853 assessed as inhibition of bacterial growth; type: functional
Coxiella burnetii = experiment: Antibacterial activity against Coxiella burnetii Nine Mile assessed as inhibition of bacterial growth; type: functional
[7] = biological target: T1, tRNA (guanine-N(1)-)-methyltransferase; experiment: Binding affinity to Escherichia coli TrmD by surface plasmon resonance assay
Escherichia coli [8] = experiment: Antibacterial activity against Escherichia coli W4573 harboring functional AcrAB-TolC assessed as inhibition of bacterial growth

Row | SMILES | IC50 [1] [µM] | MIC (Haemophilus influenzae) [µg/mL] | MIC (Escherichia coli [2]) [µg/mL] | MIC (Escherichia coli [3]) [µg/mL] | further results
1 | NC(=O)c1ccc2[nH]ccc2c1 | 160 |  |  |  | 
2 | NC(=O)c1ccc(N)cc1 | 670 |  |  |  | 
3 | NC(=O)c1cnc2c(ccn2CC(=O)NC2CNC2)c1 | 4.5 |  |  |  | 
4 | NC(=O)c1cnc2c(ccn2CC(=O)NC2CCNCC2)c1 | 6.5 |  |  |  | 
5 | NC(=O)c1ccc(NCc2cccc(N3CCNC(C(F)(F)F)C3)c2)nc1 (centres undefined) | > 10 |  |  |  | 
6 | NCc1ccc(Cn2ccc3cc(C(N)=O)ccc32)cc1 | 13 |  |  |  | 
7 | CC(C)(C)CNc1ccc(C(N)=O)cn1 | 0.14 |  |  |  | 
8 | NC(=O)c1ccc(NC2(c3cccc(N4CCNCC4)c3)CC2)nc1 | 0.011 | 1020 (≈ 3030 µM) | > 1020 | > 1020 | logD [4]: 1.4
9 | NCc1cccc(CNc2ccc(C(N)=O)cn2)c1 | 1.4 |  |  |  | 
10 | CC(C)[C@H]1CN(C(=O)Cn2c(C3CC3)cc3cc(C(N)=O)cnc32)CCN1 | 0.096 | 1020 (≈ 2770 µM) | > 1020 | > 1020 | 
11 | CN(C(=O)Cn1c(C2CC2)cc2cc(C(N)=O)cnc21)[C@@H]1C[C@H]2CC[C@@H](C1)N2 | 0.036 | > 512 | > 512 | > 1020 | logD [4]: 0.2
12 | NC(=O)c1cnc2c(c1)cc(C1CC1)n2CC(=O)N1CCNCC1 | 0.013 |  | > 1020 | > 1020 | MIC (Neisseria gonorrhoeae): > 256 µg/mL; MIC (Bacillus subtilis): > 256 µg/mL; MIC (Francisella tularensis): > 256 µg/mL; MIC (Burkholderia cepacia): > 256 µg/mL; MIC (Streptococcus pneumoniae): > 256 µg/mL; CC50 [5]: > 256 µg/mL; MIC (Enterococcus faecium): > 256 µg/mL; MIC (Moraxella catarrhalis): > 256 µg/mL; MIC [6]: > 256 µg/mL; MIC (Yersinia pestis): 256 µg/mL (≈ 782 µM); MIC (Acinetobacter baumannii): > 256 µg/mL; MIC (Pseudomonas aeruginosa): > 256 µg/mL; logD [4]: -0.1; MIC (Coxiella burnetii): > 64 µg/mL
13 | C[C@@H](Nc1ccc(C(N)=O)cn1)c1ccccc1 | 48 |  |  |  | 
14 | CN1CCN(C(=O)Cn2c(C3CC3)cc3cc(C(N)=O)cnc32)CC1 | 0.038 | > 1020 | > 512 | > 512 | logD [4]: 2.7
15 | NC(=O)c1ccc2nc(N)sc2c1 | 150 |  |  |  | Kd [7]: 420 µM
16 | NC(=O)c1ccc(NCc2ccccc2)nc1 | 3.2 |  |  |  | 
17 | CN(C(=O)Cn1ccc2cc(C(N)=O)cnc21)C1CCNCC1 | 0.83 |  |  |  | 
18 | CC(C)(CNc1ccc(C(N)=O)cn1)c1cccc(CN)c1 | 0.009 | 256 (≈ 858 µM) | > 1020 | > 1020 | MIC (Neisseria gonorrhoeae): > 256 µg/mL; MIC (Bacillus subtilis): > 256 µg/mL; MIC (Francisella tularensis): > 256 µg/mL; MIC (Burkholderia cepacia): > 256 µg/mL; MIC (Streptococcus pneumoniae): > 256 µg/mL; CC50 [5]: > 256 µg/mL; MIC (Enterococcus faecium): > 256 µg/mL; MIC (Moraxella catarrhalis): > 256 µg/mL; MIC [6]: > 256 µg/mL; MIC (Yersinia pestis): 256 µg/mL (≈ 858 µM); MIC (Acinetobacter baumannii): > 256 µg/mL; MIC (Pseudomonas aeruginosa): > 256 µg/mL; MIC (Coxiella burnetii): > 64 µg/mL
19 | CN1CCC(N(C)C(=O)Cn2c(C3CC3)cc3cc(C(N)=O)cnc32)CC1 | 0.039 | > 256 | > 512 | > 1020 | 

Row | SMILES | IC50 [1] [µM] | MIC (Haemophilus influenzae) [µg/mL] | MIC (Escherichia coli [2]) [µg/mL] | MIC (Escherichia coli [3]) [µg/mL] | further results
20 | CC(C)(CNc1ccc(C(N)=O)cn1)c1ccccc1 | 0.027 | 512 (≈ 1900 µM) | 512 (≈ 1900 µM) | 256 | MIC (Neisseria gonorrhoeae): 128 µg/mL (≈ 475 µM); MIC (Bacillus subtilis): > 256 µg/mL; MIC (Francisella tularensis): > 256 µg/mL; MIC (Burkholderia cepacia): > 256 µg/mL; MIC (Streptococcus pneumoniae): > 256 µg/mL; CC50 [5]: > 128 µg/mL; MIC (Enterococcus faecium): > 256 µg/mL; MIC (Moraxella catarrhalis): 128 µg/mL (≈ 475 µM); MIC [6]: > 256 µg/mL; MIC (Yersinia pestis): 256 µg/mL (≈ 950 µM); MIC (Acinetobacter baumannii): > 256 µg/mL; MIC (Pseudomonas aeruginosa): > 256 µg/mL; logD [4]: 3; MIC (Coxiella burnetii): > 64 µg/mL
21 | NC(=O)c1ccc(NC2CCCC2)nc1 | 0.11 |  |  |  | 
22 | NC(=O)c1cnc2c(c1)cc(C1CC1)n2CC(=O)N1CCNC(=O)C1 | 0.12 | > 512 | > 1020 | > 1020 | 
23 | NC(=O)c1ccc(NC2(c3ccccc3)CC2)nc1 | 0.27 |  |  |  | 
24 | NCc1ccc(Cn2ccc3cc(C(N)=O)cnc32)cc1 | 1.9 |  |  |  | 
25 | NC(=O)c1ccc(N)cn1 | > 1000 |  |  |  | 
26 | C[C@H](Nc1ccc(C(N)=O)cn1)c1ccccc1 | 1.3 |  |  |  | 
27 | CC(C)(Nc1ccc(C(N)=O)cn1)c1ccccc1 | 2.1 |  |  |  | 
28 | OCc1cc(-c2cccs2)[nH]n1 | 320 |  |  |  | Kd [7]: 260 µM
29 | NCc1ccc(Cn2c(C3CC3)cc3cc(C(N)=O)cnc32)cc1 | 0.31 | > 1020 | 1020 (≈ 3200 µM) | 1020 | logD [4]: 1.4
30 | CNC(=O)Cn1ccc2cc(C(N)=O)cnc21 | 64 |  |  |  | 
31 | CC(C)(CNc1ccc(C(N)=O)cn1)c1cccc(NC2CNC2)c1 | 0.13 | > 512 | > 1020 | > 1020 | logD [4]: 1
32 | NC(=O)c1cnc2c(ccn2CC(=O)N2CCNCC2)c1 | 0.8 |  |  |  | 
33 | NC(=O)c1ccc(NCc2cccc(N3CCNCC3)c2)nc1 | 0.31 | 1020 (≈ 3290 µM) | > 1020 | > 1020 | logD [4]: 1
34 | NCc1ccc(CNc2ccc(C(N)=O)cn2)cc1 | 2.3 |  |  |  | 
35 | CN(C(=O)Cn1c(C2CC2)cc2cc(C(N)=O)cnc21)C1CCNCC1 | 0.037 | > 1020 | > 256 | > 512 | logD [4]: -0.2
36 | CC(C)(CNc1ccc(C(N)=O)cn1)c1cccc(N2CCNCC2)c1 | 0.05 | > 1020 | 1020 (≈ 2900 µM) | 1020 | logD [4]: 1.6
37 | NC(=O)c1ccc(N)nc1 [6-AMINONICOTINAMIDE] | 26 |  |  |  | Kd [7]: 1.3 µM
38 | CC[C@H]1OC(=O)[C@H](C)[C@@H](O[C@H]2C[C@@](C)(OC)[C@@H](O)[C@H](C)O2)[C@H](C)[C@@H](O[C@@H]2O[C@H](C)C[C@H](N(C)C)[C@H]2O)[C@](C)(O)C[C@@H](C)C(=O)[C@H](C)[C@@H](O)[C@]1(C)O [ERYTHROMYCIN] |  | 4 (≈ 5.45 µM) | 8 (≈ 10.9 µM) | 0.5 | MIC (Escherichia coli [8]): 64 µg/mL (≈ 87.2 µM)

Source: ChEMBL document CHEMBL5247663, “Evaluating the druggability of TrmD, a potential antibacterial target, through design and microbiological profiling of a series of potent TrmD inhibitors” (Bioorg Med Chem Lett, 2023)
